Measurements published in patent publication US8796285B2, “Pyrazolo [1,5-a]-pyrimidones derivatives and pharmaceutical compositions and uses thereof” (Hebei Medical University, priority 2009, dated 2014).
Where two headings read alike, the source gives them in different places.

How the values were obtained:
[1] = biological target: T1, KCNQ2/3 (Homo sapiens, UniProt O43525+O43526); assay: High throughput atomic absorption Rb+ efflux testing, KCNQ2/3; assay type: cell-based; details: Rb+ efflux by atomic absorption
T1 construct: expressed in transfected cells

[2] = biological target: KCNQ4 potassium ion channel (Homo sapiens, UniProt P56696); assay: High throughput atomic absorption Rb+ efflux testing, CHO cell of KCNQ4 channel; assay type: cell-based; details: for EC50: CHO cell of KCNQ4 channel
From the text: Atomic absorption Rb^+ efflux testing is a fast and safe selection method for high throughput potassium channel moderator, and is characterized in that the activity of the ion channel and the control effect of the opener are directly reflected. Rb and K have similar atomic size, and potassium ion channel is permeable to Rb^+. By testing concentration of the Rb^+ efflux, a status of the potassium channel, which is an open status or a close status, can be determined. Rb has specific absorption at 780 nm, and Rb^+ concentration can be determined by atomic absorption spectroscopy. Accordingly, analysis method of atomic absorption spectroscopy can be used to select the opener/inhibitor of potassium channel through high throughput of Rb^+ efflux.
Stable cell transfer of CHO cell of KCNQ4 channel at log phase and inoculate in 96-well culture plate at a density of 2×10^4 unit/well. Each concentration has a triplicate-hole setting, and a control setting with solvent of corresponding concentration. Allow growth against the well-wall overnight, then discard the culture medium, add 200 μl loading buffer which contains RbCl, and culture in 5% CO2 at 37° C. for 3 hours. Then remove the loading buffer and wash with wash buffer for 3 times. Screen for the KCNQ opener, dilute testing compound with depolarization buffer, add 200 μl of the above solvent into the cell and allow reaction for 10 minutes. Incubate for 10 minutes, then carefully draw 200 μl supernatant to another 96-well culture plate, use ICR8000 atomic absorption spectrometry to determine the Rb^+ atomic absorption at 780 nm. Based on the equation Fsupern=(Rb_supern/cpd/Rb_supern/d)×100, calculate the corresponding rate of efflux.

[3] = tested on: Male SD rats; assay: Formalin-induced pain model; assay type: in vivo; details: rat
Method: Pharmaceutical composition used: the compound number 42 for the testing group, no medication for the positive control group, which is a blank control model.
Testing method: Male SD rats are randomly divided into control group, ipsilateral treatment group (treatment on the same side) and contralateral treatment group (treatment on the opposite side). After 30 minutes from administration of pharmaceutical compound, administer 20 μl of 20 g/L formalin by subcutaneous injection in foot bottom of back paw on the same side or the opposite side of pharmaceutical compound administration, an occurrence of typical lateral swinging and shaking of rat's tail is deemed as successful in preparing induced-pain model, in the next 60 minutes, observe the rat's licking and biting behavior towards the formalin's injection paw at each 5-min interval.

[4] = Rb+ efflux by atomic absorption, read-out: KCNQ4

Structure (SMILES) | EC50 [1] [µM] | EC50 [2, 4] [µM] | other results
COc1ccc(-c2c(C(F)(F)F)nn3c(=O)cc(C(F)(F)F)[nH]c23)cc1OC [Compound 2, 3-(3,4-dimethoxyphenyl)-2,5-bis(trifluoromethyl)pyrazolo[1,5-a]pyrimidin-7(4H)-one] | 5.65 ± 3.13 | 12.1 ± 0.23 | 
CCOC(=O)c1c(C(F)(F)F)nn2c(=O)cc(-c3ccccc3)[nH]c12 [Compound 5] | 100 ± 13.3 | 67.8 ± 2.67 | 
O=c1cc(-c2ccc(Cl)cc2)[nH]c2c(-c3ccc(F)cc3)c(C(F)(F)F)nn12 [Compound 8, 2-trifluoromethyl-3-(4-fluorophenyl)-5-(4-chlorophenyl)-pyrazole[1,5-a]pyrimidin-7(4H)-one] | 4.76 ± 1.35 | 24.5 ± 4.67 | 
O=c1cc(-c2cc(F)c(Cl)nc2Cl)[nH]c2c(-c3ccc(F)cc3)c(C(F)(F)F)nn12 [Compound 18, 5-(2,6-dichloro-5-fluoropyrindin-3-yl)-3-(4-fluorophenyl)-2-(trifluoromethyl)pyrazolo[1,5-a]pyrimidin-7(4H)-one] | 78.7 ± 12.3 | 120 ± 3.23 | 
O=c1cc(-c2ccccc2)[nH]c2c(-c3ccccc3)c(C(F)(F)F)nn12 [Compound 19, 3,5-diphenyl-2-(trifluoromethyl)pyrazolo[1,5-a]pyrimidin-7(4H)-one] | 40.2 ± 2.34 | 62.1 ± 1.12 | 
O=c1cc(C(F)(F)F)[nH]c2c(-c3ccccc3)c(C(F)(F)F)nn12 [Compound 20, 2,5 bis(trifluoromethyl)-3-phenylpyrazolo [1,5-a]pyrimidin-7(4H)-one] | 1.28 ± 1.16 | 5.87 ± 2.67 | 
O=c1cc(-c2cc(F)c(Cl)nc2Cl)[nH]c2c(-c3ccc(F)cc3)c(C(F)(F)F)nn12 [Compound 22] | 1.28 ± 0.12 | 0.15 ± 0.09 | 
COc1ccc(-c2c(C(F)(F)F)nn3c(=O)cc(-c4cc(F)c(Cl)nc4Cl)[nH]c23)cc1OC [Compound 23] | 22.1 ± 1.23 | 10.3 ± 0.43 | 
O=c1cc(CN2CCCCC2)[nH]c2c(-c3ccccc3)c(C(F)(F)F)nn12 [Compound 25, 5-(piperidin-1-ylmethyl)-3-phenyl-2-trifluoromethylpyrazolo[1,5-a]pyrimidin-7(4H)-one] | 85.3 ± 3.45 | 35 ± 1.21 | 
O=c1cc(-c2cccc([N+](=O)[O-])c2)[nH]c2c(-c3ccccc3)c(C(F)(F)F)nn12 [Compound 30, 5-(3-nitrophenyl)-3-phenyl-2-trifluoromethylpyrazolo[1,5-a]pyrimidin-7(4H)-one] | 1.26 ± 0.68 | 12.2 ± 0.82 | 
O=C(Cc1ccc(C(F)(F)F)cc1)NCc1cc(=O)n2nc(C(F)(F)F)c(-c3ccccc3)c2[nH]1 [Compound 35] | 138 ± 9.28 | 44.5 ± 5.28 | 
O=c1cc(C(F)(F)F)[nH]c2c(-c3cccc4ccccc34)c(C(F)(F)F)nn12 [Compound 38, 2,5-bis(trifluoromethyl)-3-(naphthalen-1-yl)pyrazolo[1,5-a]pyrimidin-7(4H)-one] | 9.29 ± 26.3 | 4.82 ± 3.45 | 
O=c1cc(CCl)[nH]c2c(-c3cccc4ccccc34)c(C(F)(F)F)nn12 [Compound 39, 5-chloromethyl-3-(naphthalen-1-yl)-2-trifluoromethylpyrazolo[1,5-a]pyrimidin-7(4H)-one] | 5.21 ± 3.21 | 21.7 ± 9.72 | 
O=c1cc(-c2cc(F)c(Cl)nc2Cl)[nH]c2c(-c3cccc4ccccc34)c(C(F)(F)F)nn12 [Compound 42] | 0.53 ± 0.28 |  | accumulated time of licking/biting back paw, first phase ([3]; 0-10 min after formalin injection, treatment vs control group, p>0.05): no significant difference; accumulated time of licking/biting back paw, second phase ([3]; 10-60 min after formalin, ipsilateral treatment group vs control group, p<0.05): decrease in accumulated time of licking/biting back paw; activating effect on the CHO cell of the KCNQ4 potassium ion channel ([2]; Rb+ efflux at 0.03, 0.1, 0.6, 1, 3 and 10 μM, FIG. 4): dose-dependent activating effect; EC50 ([2]; Rb+ efflux, 0.03-10 μM, FIG. 4, read-out: EC50): 0.96 ± 0.51 µM
COc1ccc(-c2cc(=O)n3nc(C(F)(F)F)c(-c4cccc5ccccc45)c3[nH]2)cc1 [Compound 47, 5-(4-methoxyphenyl)-3-(naphthalen-1-yl)-2-trifluoromethylpyrazolo[1,5-a]pyrimidin-7(4H)-one] | 89.2 ± 24.2 | 46.2 ± 2.34 | 
O=c1cc(-c2cc(F)c(Cl)nc2Cl)[nH]c2c(-c3cccs3)c(C(F)(F)F)nn12 [Compound 60] | 5.32 ± 2.23 | 1.14 ± 0.34 | 
O=c1cc(CN2CCNCC2)[nH]c2c(-c3cccs3)c(C(F)(F)F)nn12 [Compound 61] | 77.7 ± 21.3 | 33.3 ± 2.12 | 
CCOC(=O)c1c(-c2ccc(Cl)cc2)nn2c(=O)cc(C(F)(F)F)[nH]c12 [Compound 73, ethyl 7-oxo-2-(4-chlorophenyl)-5-(trifluoromethyl)-4,7-dihydropyrazolo[1,5-a]pyrimidine-3-carboxylate] | 135 ± 32.2 | 60.6 ± 3.28 | 
O=c1cc(C(F)(F)F)[nH]c2c(-c3c[nH]c4ccccc34)c(-c3ccc(Cl)cc3)nn12 [Compound 77, 2-(4-chlorophenyl)-3-(1H-indol-3-yl)-5-trifluoromethylpyrazolo[1,5-a]pyrimidin-7(4H)-one] | 32.2 ± 9.32 | 82.3 ± 19.3 | 
O=C(OCc1cc(=O)n2nc(C(F)(F)F)c(N3CCNCC3)c2[nH]1)C(F)(F)F [Compound 86, (2-trifluoromethyl-3-piperazinyl-7-oxo-4,7-dihydropyrazolo[1,5-a]pyrimidin-5-yl)methyl-2,2,2-trifluoroacetate] | 98.3 ± 65.2 | 50.1 ± 1.34 | 
O=c1cc(-c2cc(F)c(Cl)nc2Cl)[nH]c2c(-c3cccs3)c(C(Cl)(Cl)Cl)nn12 [Compound 94, 5-(2,6-dichloro-5-fluoropyrido)-3-(thiophen-2-yl)-2-trichloromethyl pyrazolo[1,5-a]pyrimidin-7(4H)-one] | 0.28 ± 0.32 | 0.54 ± 0.23 | 
O=c1cc(CCl)[nH]c2c(-c3cccs3)c(C(F)(F)F)nn12 [Compound 96, 5-chloromethyl-3-(thiophen-2-yl)-2-trifluoromethylpyrazolo[1,5-a]pyrimidin-7(4H)-one] |  | 5.41 ± 2.29 | 
O=c1cc(-c2cc(F)c(F)cc2F)[nH]c2c(-c3ccccc3)c(C(Cl)(Cl)Cl)nn12 [Compound 99, 3-phenyl-2-trichloromethyl-5-(2,4,5-trifluorophenyl)pyrazolo[1,5-a]pyrimidin-7(4H)-one] | 54.5 ± 32.1 | 18.4 ± 1.34 | 
O=c1cc(CCl)[nH]c2c(-c3cccs3)c(Cl)nn12 [Compound 108, 2-chloro-3-(thiophen-2-yl)-5-chloromethylpyrazolo[1,5-a]pyrimidin-7(4H)-one] | 56.8 ± 19.4 | 91.2 ± 33.2 | 
O=C(NCc1cc(=O)n2nc(Cl)c(-c3ccc4ccccc4c3)c2[nH]1)C(F)(F)F [Compound 116, N-((2-chloro-3-(naphthalen-2-yl)-7-oxo-4,7-dihydropyrazolo[1,5-a]pyrimidin-5-yl)methyl)-2,2,2-trifluoroacetamide] | 210 ± 9.8 | 43.2 ± 13.7 | 
